Results as given in ChEMBL document CHEMBL1649251, “Antischistosomal activity of hexadecyloxypropyl cyclic 9-(S)-[3-hydroxy-2-(phosphonomethoxy)propyl]adenine and other alkoxyalkyl esters of acyclic nucleoside phosphonates assessed by schistosome worm killing in vitro” (Antimicrob Agents Chemother, 2009).

Tests used:
Schistosoma mansoni [1] = experiment: Antischistosomal activity against Schistosoma mansoni isolated from infected Syrian golden hamsters assessed as worm mortality at 75 uM treated for overnight followed by drug washout measured on day 5 relative to control; type: functional
Schistosoma mansoni [2] = experiment: Antischistosomal activity against Schistosoma mansoni isolated from infected Syrian golden hamsters assessed as worm mortality at 5 uM treated for overnight followed by drug washout measured on day 5; type: functional
Schistosoma mansoni [3] = experiment: Antischistosomal activity against Schistosoma mansoni isolated from infected Syrian golden hamsters assessed as worm mortality at 100 uM treated for overnight followed by drug washout measured on day 5 relative to control; type: functional
Schistosoma mansoni [4] = experiment: Antischistosomal activity against Schistosoma mansoni isolated from infected Syrian golden hamsters assessed as worm mortality at 50 uM treated for overnight followed by drug washout measured on day 5 relative to control; type: functional
Schistosoma mansoni [5] = experiment: Antischistosomal activity against Schistosoma mansoni isolated from infected Syrian golden hamsters assessed as worm mortality at 25 uM treated for overnight followed by drug washout measured on day 5 relative to control; type: functional
Schistosoma mansoni [6] = experiment: Antischistosomal activity against Schistosoma mansoni isolated from infected Syrian golden hamsters assessed as worm mortality treated for overnight followed by drug washout measured on day 5; type: functional, organism-based; settings: 120 h
Schistosoma mansoni [7] = experiment: Antischistosomal activity against Schistosoma mansoni isolated from infected Syrian golden hamsters assessed as worm mortality at 12.5 uM treated for overnight followed by drug washout measured on day 5 relative to control; type: functional

Q: Which results are given for CCCCCCCCCCCCCCCCOCCCOP(=O)(O)CO[C@H](CO)Cn1cnc2c(N)ncnc21?
A: Activity (Schistosoma mansoni [1]): 28.6%; Activity (Schistosoma mansoni [2]): 6.25%; Activity (Schistosoma mansoni [3]): 30.8%; Activity (Schistosoma mansoni [4]): 32.3%; Activity (Schistosoma mansoni [5]): 18.8%; EC50 (Schistosoma mansoni [6]): > 100 µM; Activity (Schistosoma mansoni [7]): 12.5%

Q: Which Activity (Schistosoma mansoni [1]) does the source give for CCCCCCCCCCCCCCCCCCOCCOP(=O)(O)CO[C@H](CO)Cn1cnc2c(=O)[nH]c(N)nc21 here?
A: 36%

Q: What about the Activity (Schistosoma mansoni [2]) of the same compound?
A: 13%

Q: What about the Activity (Schistosoma mansoni [3]) of the same compound?
A: 33%

Q: And the Activity (Schistosoma mansoni [4])?
A: 20%

Q: What about the Activity (Schistosoma mansoni [5]) of the same compound?
A: 15%

Q: And the EC50 (Schistosoma mansoni [6])?
A: > 100 µM

Q: And the Activity (Schistosoma mansoni [7])?
A: 7%

Q: CCCCCCCCCCCCCCCCOCCCOP1(=O)CO[C@@H](Cn2cnc3c(N)ncnc32)CO1 (stereo partly specified) was tested. Which Activity (Schistosoma mansoni [1]) did it give?
A: 84.6%

Q: What about the Activity (Schistosoma mansoni [2]) of the same compound?
A: 50%

Q: What about the Activity (Schistosoma mansoni [3]) of the same compound?
A: 93.3%

Q: What about the Activity (Schistosoma mansoni [4]) of the same compound?
A: 78.6%

Q: What about the Activity (Schistosoma mansoni [5]) of the same compound?
A: 69.2%

Q: What about the EC50 (Schistosoma mansoni [6]) of the same compound?
A: 5 µM

Q: What about the Activity (Schistosoma mansoni [7]) of the same compound?
A: 53.8%

Q: Which results are given for CCCCCCCCCCCCCCCCCCOCCOP(=O)(O)CO[C@H](CO)Cn1cnc2c(N)ncnc21?
A: Activity (Schistosoma mansoni [1]): 33%; Activity (Schistosoma mansoni [2]): 12.5%; Activity (Schistosoma mansoni [3]): 47%; Activity (Schistosoma mansoni [4]): 40%; Activity (Schistosoma mansoni [5]): 25%; EC50 (Schistosoma mansoni [6]): > 100 µM; Activity (Schistosoma mansoni [7]): 12.5%

Q: What does the source list for CCCCCCCCCCCCCCCCCCOCCOP(=O)(O)CO[C@H](CO)Cn1cnc2c(N)nc(N)nc21?
A: Activity (Schistosoma mansoni [1]): 40%; Activity (Schistosoma mansoni [2]): 7%; Activity (Schistosoma mansoni [3]): 40%; Activity (Schistosoma mansoni [4]): 33%; Activity (Schistosoma mansoni [5]): 14%; EC50 (Schistosoma mansoni [6]): > 100 µM; Activity (Schistosoma mansoni [7]): 8%

Q: What does the source list for CCCCCCCCCCCCCCCCOCCCOP1(=O)CO[C@@H](Cn2ccc(N)nc2=O)CO1 (stereo partly specified)?
A: Activity (Schistosoma mansoni [1]): 64%; Activity (Schistosoma mansoni [2]): 13%; Activity (Schistosoma mansoni [3]): 100%; Activity (Schistosoma mansoni [4]): 67%; Activity (Schistosoma mansoni [5]): 36%; EC50 (Schistosoma mansoni [6]): 28 µM; Activity (Schistosoma mansoni [7]): 33%

Q: With O=C(C1CCCCC1)N1CC(=O)N2CCc3ccccc3C2C1 (stereo unspecified) [PRAZIQUANTEL] as the compound, how does the Activity (Schistosoma mansoni [1]) read?
A: 100%

Q: And the Activity (Schistosoma mansoni [2])?
A: 100%

Q: And the Activity (Schistosoma mansoni [3])?
A: 100%

Q: What about the Activity (Schistosoma mansoni [4]) of the same compound?
A: 100%

Q: And the Activity (Schistosoma mansoni [5])?
A: 100%

Q: And the EC50 (Schistosoma mansoni [6])?
A: 0.22 µM

Q: And the Activity (Schistosoma mansoni [7])?
A: 100%

Q: What does the source list for Nc1ncnc2c1ncn2C[C@@H](CO)OCP(=O)(O)O?
A: Activity (Schistosoma mansoni [1]): 12.5%; Activity (Schistosoma mansoni [2]): 6.7%; Activity (Schistosoma mansoni [3]): 13%; Activity (Schistosoma mansoni [4]): 7%; Activity (Schistosoma mansoni [5]): 7%; EC50 (Schistosoma mansoni [6]): > 100 µM; Activity (Schistosoma mansoni [7]): 6.25%
